Assay results taken from PubChem BioAssay (NCI).
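Values below derive from 48-hour exposures of cells grown in 96-well plates, with endpoints linearly interpolated between the two concentrations bracketing the appropriate inhibition level. TGI marks complete inhibition of growth.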

Columns and labels:
Experiment in all cases: NCI anticancer screen, dose series, 48 h
SF-539 CNS = tested on: SF-539 CNS
SK-MEL-2 melanoma = tested on: SK-MEL-2 melanoma
CAKI-1 renal = tested on: CAKI-1 renal
SR leukemia = tested on: SR leukemia
EKVX NSCLC = tested on: EKVX NSCLC
MALME-3M melanoma = tested on: MALME-3M melanoma
KM20L2 colon = tested on: KM20L2 colon
HOP-62 NSCLC = tested on: HOP-62 NSCLC
MOLT-4 leukemia = tested on: MOLT-4 leukemia
HCT-116 colon = tested on: HCT-116 colon
SN12C renal = tested on: SN12C renal
NCI-H460 lung = tested on: NCI-H460 lung
DMS 114 small cell lung = tested on: DMS 114 small cell lung
XF 498 CNS = tested on: XF 498 CNS
HOP-92 NSCLC = tested on: HOP-92 NSCLC
NCI-H226 lung = tested on: NCI-H226 lung
M19-MEL melanoma = tested on: M19-MEL melanoma
KM12 colon = tested on: KM12 colon
HCT-15 colon = tested on: HCT-15 colon
OVCAR-4 ovarian = tested on: OVCAR-4 ovarian
A549 NSCLC = tested on: A549 NSCLC
SK-MEL-28 melanoma = tested on: SK-MEL-28 melanoma
OVCAR-8 ovarian = tested on: OVCAR-8 ovarian
OVCAR-3 ovarian = tested on: OVCAR-3 ovarian
ACHN renal = tested on: ACHN renal
CCRF-CEM leukemia = tested on: CCRF-CEM leukemia
SW-620 colon = tested on: SW-620 colon
SF-295 CNS = tested on: SF-295 CNS
HL-60(TB) leukemia = tested on: HL-60(TB) leukemia
RXF-631 renal = tested on: RXF-631 renal
UACC-62 melanoma = tested on: UACC-62 melanoma
COLO 205 colon = tested on: COLO 205 colon
LXFL 529 NSCLC = tested on: LXFL 529 NSCLC
786-0 renal = tested on: 786-0 renal
M14 melanoma = tested on: M14 melanoma
UO-31 renal = tested on: UO-31 renal
SNB-75 CNS = tested on: SNB-75 CNS
RPMI-8226 leukemia = tested on: RPMI-8226 leukemia
SNB-19 CNS = tested on: SNB-19 CNS
SF-268 CNS = tested on: SF-268 CNS
TK-10 renal = tested on: TK-10 renal
K-562 leukemia = tested on: K-562 leukemia
HOP-18 NSCLC = tested on: HOP-18 NSCLC
HT29 colon = tested on: HT29 colon
UACC-257 melanoma = tested on: UACC-257 melanoma
IGROV1 ovarian = tested on: IGROV1 ovarian
U251 CNS = tested on: U251 CNS
SNB-78 CNS = tested on: SNB-78 CNS
HCC-2998 colon = tested on: HCC-2998 colon
RXF 393 renal = tested on: RXF 393 renal
SK-OV-3 ovarian = tested on: SK-OV-3 ovarian
DU-145 prostate = tested on: DU-145 prostate
NCI-H23 lung = tested on: NCI-H23 lung
LOX IMVI melanoma = tested on: LOX IMVI melanoma
OVCAR-5 ovarian = tested on: OVCAR-5 ovarian
NCI-H522 lung = tested on: NCI-H522 lung
A498 renal = tested on: A498 renal
SK-MEL-5 melanoma = tested on: SK-MEL-5 melanoma
DLD-1 colon = tested on: DLD-1 colon

Q: Which results are given for `CCCCOP1(=O)C=CC(Cl)=C(C)C1` (stereo not drawn)?
A: TGI (SF-539 CNS): 36.3 µM; TGI (SK-MEL-2 melanoma): 50.8 µM; TGI (CAKI-1 renal): > 100 µM; TGI (SR leukemia): 39.4 µM; TGI (EKVX NSCLC): > 100 µM; TGI (MALME-3M melanoma): 47.5 µM; TGI (KM20L2 colon): 49.5 µM; TGI (HOP-62 NSCLC): > 100 µM; TGI (MOLT-4 leukemia): 25.3 µM; TGI (HCT-116 colon): 46.9 µM; TGI (SN12C renal): 49.8 µM; TGI (NCI-H460 lung): 80.8 µM; TGI (DMS 114 small cell lung): 71.7 µM; TGI (XF 498 CNS): 43.2 µM; TGI (HOP-92 NSCLC): 54.5 µM; TGI (NCI-H226 lung): 41.9 µM; TGI (M19-MEL melanoma): > 100 µM; TGI (KM12 colon): 46.6 µM; TGI (HCT-15 colon): 32.8 µM; TGI (OVCAR-4 ovarian): 73.7 µM; TGI (A549 NSCLC): > 100 µM; TGI (SK-MEL-28 melanoma): 31.7 µM; TGI (OVCAR-8 ovarian): 51.3 µM; TGI (OVCAR-3 ovarian): 77.7 µM; TGI (ACHN renal): 36.3 µM; TGI (CCRF-CEM leukemia): 35 µM; TGI (SW-620 colon): 42.7 µM; TGI (SF-295 CNS): 39.6 µM; TGI (HL-60(TB) leukemia): 39.6 µM; TGI (RXF-631 renal): > 100 µM; TGI (UACC-62 melanoma): 54.4 µM; TGI (COLO 205 colon): 97.7 µM; TGI (LXFL 529 NSCLC): 94.4 µM; TGI (786-0 renal): 49.3 µM; TGI (M14 melanoma): > 100 µM; TGI (UO-31 renal): > 100 µM; TGI (SNB-75 CNS): 49.6 µM; TGI (RPMI-8226 leukemia): 85.6 µM; TGI (SNB-19 CNS): > 100 µM; TGI (SF-268 CNS): 89.2 µM; TGI (TK-10 renal): 75.1 µM; TGI (K-562 leukemia): 50 µM; TGI (HOP-18 NSCLC): > 100 µM; TGI (HT29 colon): 45 µM

Q: Which TGI (SF-539 CNS) does the source give for `C=C(C[N+](C)(C)C)N/N=C/c1oc(-c2ccc(OC)c(OC)c2)c(-c2ccc(OC)c(OC)c2)c1[N+](=O)[O-]` here?
A: The TGI was 31.6 µM.

Q: What about the TGI (SK-MEL-2 melanoma) of the same molecule?
A: The TGI was 31.9 µM.

Q: And the TGI (CAKI-1 renal)?
A: The TGI was > 100 µM.

Q: And the TGI (SR leukemia)?
A: Its TGI is 23.9 µM.

Q: What about the TGI (EKVX NSCLC) of the same molecule?
A: The TGI was > 100 µM.

Q: And the TGI (UACC-257 melanoma)?
A: The TGI was 46.6 µM.

Q: What about the TGI (IGROV1 ovarian) of the same molecule?
A: The TGI was 34.3 µM.

Q: What about the TGI (U251 CNS) of the same molecule?
A: Its TGI is 40.2 µM.

Q: And the TGI (KM20L2 colon)?
A: Its TGI is > 100 µM.

Q: And the TGI (SNB-78 CNS)?
A: Its TGI is > 100 µM.

Q: And the TGI (MOLT-4 leukemia)?
A: Its TGI is 83.6 µM.

Q: What about the TGI (HCT-116 colon) of the same molecule?
A: The TGI was 32.5 µM.

Q: And the TGI (SN12C renal)?
A: The TGI was 32.6 µM.

Q: And the TGI (NCI-H460 lung)?
A: Its TGI is 40.2 µM.

Q: And the TGI (XF 498 CNS)?
A: Its TGI is 56.6 µM.

Q: And the TGI (HCC-2998 colon)?
A: The TGI was 35.5 µM.

Q: What about the TGI (RXF 393 renal) of the same molecule?
A: Its TGI is 30.1 µM.

Q: And the TGI (HOP-92 NSCLC)?
A: The TGI was 96.2 µM.

Q: What about the TGI (NCI-H226 lung) of the same molecule?
A: The TGI was 66.3 µM.

Q: What about the TGI (SK-OV-3 ovarian) of the same molecule?
A: Its TGI is 64.4 µM.

Q: And the TGI (M19-MEL melanoma)?
A: Its TGI is 29.3 µM.

Q: What about the TGI (KM12 colon) of the same molecule?
A: Its TGI is 31.5 µM.

Q: What about the TGI (HCT-15 colon) of the same molecule?
A: Its TGI is 36.8 µM.

Q: What about the TGI (OVCAR-4 ovarian) of the same molecule?
A: Its TGI is 38 µM.

Q: And the TGI (A549 NSCLC)?
A: The TGI was > 100 µM.

Q: And the TGI (SK-MEL-28 melanoma)?
A: The TGI was 33.8 µM.

Q: What about the TGI (OVCAR-8 ovarian) of the same molecule?
A: Its TGI is 31.4 µM.

Q: What about the TGI (DU-145 prostate) of the same molecule?
A: Its TGI is > 100 µM.

Q: And the TGI (OVCAR-3 ovarian)?
A: Its TGI is 71.6 µM.

Q: And the TGI (ACHN renal)?
A: The TGI was 31.5 µM.

Q: And the TGI (CCRF-CEM leukemia)?
A: Its TGI is 50.5 µM.

Q: And the TGI (SW-620 colon)?
A: The TGI was 34.5 µM.

Q: What about the TGI (NCI-H23 lung) of the same molecule?
A: The TGI was 44.7 µM.

Q: And the TGI (SF-295 CNS)?
A: Its TGI is 39.6 µM.

Q: And the TGI (HL-60(TB) leukemia)?
A: The TGI was 33.9 µM.

Q: What about the TGI (COLO 205 colon) of the same molecule?
A: The TGI was 33.6 µM.

Q: What about the TGI (LXFL 529 NSCLC) of the same molecule?
A: The TGI was 52.4 µM.

Q: And the TGI (LOX IMVI melanoma)?
A: The TGI was 28.9 µM.

Q: What about the TGI (OVCAR-5 ovarian) of the same molecule?
A: Its TGI is 40.3 µM.

Q: And the TGI (786-0 renal)?
A: The TGI was 32.9 µM.

Q: And the TGI (M14 melanoma)?
A: Its TGI is 48.2 µM.

Q: What about the TGI (NCI-H522 lung) of the same molecule?
A: Its TGI is 45.3 µM.

Q: What about the TGI (UO-31 renal) of the same molecule?
A: The TGI was 33.7 µM.

Q: What about the TGI (A498 renal) of the same molecule?
A: The TGI was 82.3 µM.

Q: What about the TGI (SNB-75 CNS) of the same molecule?
A: The TGI was 78.2 µM.

Q: And the TGI (RPMI-8226 leukemia)?
A: Its TGI is 41.4 µM.

Q: What about the TGI (SNB-19 CNS) of the same molecule?
A: The TGI was > 100 µM.

Q: What about the TGI (SF-268 CNS) of the same molecule?
A: The TGI was 38.7 µM.

Q: What about the TGI (SK-MEL-5 melanoma) of the same molecule?
A: The TGI was 31.7 µM.

Q: And the TGI (TK-10 renal)?
A: Its TGI is 50.6 µM.

Q: What about the TGI (K-562 leukemia) of the same molecule?
A: The TGI was 52.5 µM.

Q: And the TGI (HOP-18 NSCLC)?
A: Its TGI is 60.4 µM.

Q: What about the TGI (HT29 colon) of the same molecule?
A: Its TGI is 32.1 µM.

Q: What about the TGI (DLD-1 colon) of the same molecule?
A: Its TGI is 46.9 µM.
